The test system of one experiment is Hep3B. In words: MTT cytotoxicity assay (Example 30). Type of experiment: cell-based, human. The note with it: Homo sapiens, Hep3B, 72 h; MTT, three days after drug addition; read-out: Inhibitory concentration IC50, Hep3B.
A further experiment concerns the target T1, CDK9/Cyclin T1 (Homo sapiens, UniProt P50750).
T1 construct: purchased ProQinase GmbH (Freiburg, Germany)
The experiment in a line: Kinase inhibition assay, recombinant kinase, [γ-33P]ATP. Type of experiment: biochemical. The note with it: read-out: Residual kinase activity, CDK9; for remaining activity at 0.1 µM: 100 nM; for remaining activity at 1 µM: 1000 nM. As for the experimental part: (§1) CDK2/Cyclin E kinase was produced in Sf9 insect cells via baculoviral infection and purified on a NiNTA column (Qiagen). CDK5/p35, CDK7Cyclin H/MAT1 and CDK9/Cyclin T1 was purchased from ProQinase GmbH. The kinase reactions were assayed with 1 mg/mL histone H1 (for CDK2 and CDK5) or (YSPTSPS)2KK peptide (for CDK7 and CDK9) in the presence of 15/0.15/1.5/1.5 μM ATP (for CDK2/CDK5/CDK7CDK9), 0.05 μCi [γ-^33P]ATP and of the test compound in a final volume of 10 μL, all in a reaction buffer (60 mM HEPES-NaOH, pH 7.5, 3 mM MgCl2, 3 mM MnCl2, 3 μM Na-orthovanadate, 1.2 mM DTT, 2.5 μg/50 μl PEG20,000). The reactions were stopped by adding 5 μL of 3% aq H3PO4. Aliquots were spotted onto P-81 phosphocellulose (Whatman), washed 3× with 0.5% aq H3PO4 and finally air-dried.
(§2) CDK1/cyclin B and CDK2/cyclin E kinases were produced in Sf9 insect cells via baculoviral infection, while CDK5/p35, CDK7/cyclin H/MAT1, and CDK9/cyclin T1 were purchased from ProQinase (Freiburg, Germany) and assayed as described previously (35). The kinase reactions were assayed with 1 mg/ml histone H1 (for CDK2 and CDK5) or (YSPTSPS)2KK peptide (for CDK7 and CDK9) in the presence of 15/0.15/1.5/1.5 […] ATP (for CDK2/CDK5/CDK7CDK9), […] [γ-^33P]ATP and of the test compound in a final volume of […]. The reaction buffer contained 60 mM HEPES-NaOH, pH 7.5, 3 mM MgCl2, 3 mM MnCl2, 3 mM Na-orthovanadate, 1.2 mM DTT, 2.5 mg/50 ml PEG20.000. The reactions were stopped by adding […] of 3% H3PO4. Aliquots were spotted onto P-81 phosphocellulose (Whatman, GE Healthcare Biosciences, Pittsburgh, USA), washed 3 times with 0.5% H3PO4 and finally air-dried. Kinase inhibition was quantified using a FLA-7000 digital image analyzer (Fujifilm, Tokyo, Japan).

Another experiment deals with T2, CDK7/cyclin H/MAT1 (Homo sapiens, UniProt P50613).
T2 construct: purchased ProQinase GmbH (Freiburg, Germany)
Described as above. It is filed as biochemical. The note with it: read-out: Residual kinase activity, CDK7; for remaining activity at 0.1 µM: 100 nM; for remaining activity at 1 µM: 1000 nM. As for the experimental part: as §1, §2

For the next experiment, the target named is T3, CDK5/p35 (Homo sapiens, UniProt Q00535).
T3 construct: purchased ProQinase GmbH (Freiburg, Germany)
Described as above. Type of experiment: biochemical. The following applies: read-out: Residual kinase activity, CDK5; for remaining activity at 0.1 µM: 100 nM; for remaining activity at 1 µM: 1000 nM. As to the method:
as §1, §2

Experiment [1] concerns human umbilical vein endothelial cells (HUVEC). In words: HUVEC proliferation, Calcein AM. Type of experiment: cell-based. The following applies: Homo sapiens, HUVEC, read-out: Inhibitory concentration for HUVEC cells - IC50. An outline of the steps:
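Confluent HUVECs seeded in 96-well plates and exposed to compound for 24 or 72 h. Proliferation read by Calcein AM fluorescence.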

The subject of a further experiment is HepG2. In words: MTT cytotoxicity assay (Example 30). Type of experiment: cell-based. The note with it: Homo sapiens, HepG2, 72 h; MTT, three days after drug addition; read-out: Inhibitory concentration IC50, HepG2. The text has this:
Cytotoxicity of the compounds is the major property determining their anticancer effect in vivo. One of the parameters used, as the basis for cytotoxicity assays, is the metabolic activity of viable cells. For example, a microtiter assay, which uses (3-(4,5-Dimethylthiazol-2-yl)-2,5-diphenyltetrazolium bromide (MTT), is widely used to quantitate cell proliferation and cytotoxicity. For instance, this assay is used in drug screening programs and in chemosensitivity testing. Because only metabolically active living cells reduce MTT to correspond purple formazan dye, these assays detect viable cells exclusively. The quantity of reduced MTT corresponds to the number of vital cells in the culture.
We have been using the following cell lines: HUH-7 and PLC/PRF/5 cell lines were maintained in DMEM supplemented with 10% fetal bovine serum, penicillin (100 U/ml) and streptomycin (100 μg/ml). Unique HCC-1.2 (3p) and HCC-1.1 (3sp) cell lines (Zilj et al., 2009, Future Oncol, 5(8):1169-79) and Hep3B cells were cultivated in RPMI supplemented with 10% fetal bovine serum, penicillin (100 U/ml) and streptomycin (100 μg/ml). HepG2 cell line was maintained in EMEM supplemented with 10% fetal bovine serum, sodium pyruvate (0.11 g/1), penicillin (100 U/ml) and streptomycin (100 μg/ml). All cell lines were cultivated at 37° C. in 5% CO2. For cytotoxicity assays, 3000 cells (10000 cells in case of HepG2 cell line) were seeded into each well of 96 well plate and the next day tested compounds were added at various concentrations in triplicates. Three days after drug addition MTT stock solution (5 mg/ml) was added into each well and incubated for 4 h. After this incubation period, produced formazan was dissolved by DMSO and final absorbance was measured at 570 nm with Synergy H4 Hybrid Multi-Mode Microplate Reader.
Background: Tetrazolium dyes change colour on reduction, which living cells bring about.

pIC50: −log10 of the molar value. Where two headings read alike, the source gives them in different places.

T1 sequence (P50750 whole entry): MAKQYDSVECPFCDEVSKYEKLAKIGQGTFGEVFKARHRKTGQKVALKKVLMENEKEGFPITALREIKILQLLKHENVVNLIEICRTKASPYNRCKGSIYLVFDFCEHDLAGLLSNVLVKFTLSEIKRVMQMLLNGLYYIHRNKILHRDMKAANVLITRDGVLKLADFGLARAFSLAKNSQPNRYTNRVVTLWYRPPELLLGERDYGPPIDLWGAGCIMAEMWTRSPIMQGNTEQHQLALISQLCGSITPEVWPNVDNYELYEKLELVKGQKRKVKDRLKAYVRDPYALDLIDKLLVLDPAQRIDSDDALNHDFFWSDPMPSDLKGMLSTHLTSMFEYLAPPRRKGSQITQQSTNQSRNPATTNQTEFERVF
T1 sequence (O60563 whole entry partner): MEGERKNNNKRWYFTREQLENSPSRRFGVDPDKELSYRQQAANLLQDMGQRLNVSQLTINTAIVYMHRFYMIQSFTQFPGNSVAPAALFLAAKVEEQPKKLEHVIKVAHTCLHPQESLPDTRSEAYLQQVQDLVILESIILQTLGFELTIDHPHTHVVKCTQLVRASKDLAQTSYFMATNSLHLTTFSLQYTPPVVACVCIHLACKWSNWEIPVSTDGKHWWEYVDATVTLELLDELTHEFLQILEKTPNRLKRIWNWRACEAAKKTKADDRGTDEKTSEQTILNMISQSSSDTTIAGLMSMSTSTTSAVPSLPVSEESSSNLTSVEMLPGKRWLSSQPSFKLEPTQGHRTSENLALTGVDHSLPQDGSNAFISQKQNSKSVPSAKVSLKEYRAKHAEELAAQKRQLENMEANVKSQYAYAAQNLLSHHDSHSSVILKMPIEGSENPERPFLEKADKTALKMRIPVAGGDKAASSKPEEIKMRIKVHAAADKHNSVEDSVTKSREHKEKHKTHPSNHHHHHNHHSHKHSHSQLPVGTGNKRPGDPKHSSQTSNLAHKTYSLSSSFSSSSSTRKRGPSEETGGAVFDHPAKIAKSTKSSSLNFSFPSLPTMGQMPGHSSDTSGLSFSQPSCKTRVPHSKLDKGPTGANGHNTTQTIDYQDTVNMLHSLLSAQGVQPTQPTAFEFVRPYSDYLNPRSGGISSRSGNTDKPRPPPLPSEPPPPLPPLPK
T2 sequence (P50613 whole entry): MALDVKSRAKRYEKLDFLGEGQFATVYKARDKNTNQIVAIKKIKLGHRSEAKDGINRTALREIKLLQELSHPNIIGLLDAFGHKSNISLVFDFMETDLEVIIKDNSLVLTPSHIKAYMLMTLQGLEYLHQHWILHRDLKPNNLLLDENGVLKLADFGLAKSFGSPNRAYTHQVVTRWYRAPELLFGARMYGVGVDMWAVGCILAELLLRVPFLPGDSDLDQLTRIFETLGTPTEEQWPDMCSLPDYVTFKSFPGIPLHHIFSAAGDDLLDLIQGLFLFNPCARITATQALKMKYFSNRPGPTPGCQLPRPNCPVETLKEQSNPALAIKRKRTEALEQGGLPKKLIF
T2 sequence (P51946 whole entry partner): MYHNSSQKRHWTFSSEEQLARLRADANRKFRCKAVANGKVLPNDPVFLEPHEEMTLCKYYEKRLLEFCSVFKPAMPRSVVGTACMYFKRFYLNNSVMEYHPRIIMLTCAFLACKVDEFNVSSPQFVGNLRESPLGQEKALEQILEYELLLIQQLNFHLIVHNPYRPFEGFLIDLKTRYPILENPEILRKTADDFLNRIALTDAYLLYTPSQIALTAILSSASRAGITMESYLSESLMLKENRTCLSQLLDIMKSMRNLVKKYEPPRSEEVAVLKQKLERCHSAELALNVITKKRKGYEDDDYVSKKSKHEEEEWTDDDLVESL
T2 sequence (P51948 whole entry partner): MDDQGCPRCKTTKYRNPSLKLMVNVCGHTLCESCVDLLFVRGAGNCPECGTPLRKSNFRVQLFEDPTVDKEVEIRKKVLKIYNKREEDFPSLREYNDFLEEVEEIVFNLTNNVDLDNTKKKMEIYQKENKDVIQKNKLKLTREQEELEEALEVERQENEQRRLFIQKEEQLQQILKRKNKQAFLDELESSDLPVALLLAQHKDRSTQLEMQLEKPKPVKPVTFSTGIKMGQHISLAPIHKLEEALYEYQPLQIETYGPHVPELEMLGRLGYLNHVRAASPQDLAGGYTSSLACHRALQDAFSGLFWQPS
T3 sequence (Q00535 whole entry): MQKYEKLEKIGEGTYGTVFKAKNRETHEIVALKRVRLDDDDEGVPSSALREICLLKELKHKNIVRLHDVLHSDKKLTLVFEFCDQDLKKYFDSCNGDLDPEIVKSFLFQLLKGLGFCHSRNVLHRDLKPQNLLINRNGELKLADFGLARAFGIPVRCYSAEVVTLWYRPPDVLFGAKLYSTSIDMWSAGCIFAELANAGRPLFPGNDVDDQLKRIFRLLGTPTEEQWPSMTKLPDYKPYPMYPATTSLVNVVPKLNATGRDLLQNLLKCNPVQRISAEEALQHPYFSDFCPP
T3 sequence (Q15078 whole entry partner): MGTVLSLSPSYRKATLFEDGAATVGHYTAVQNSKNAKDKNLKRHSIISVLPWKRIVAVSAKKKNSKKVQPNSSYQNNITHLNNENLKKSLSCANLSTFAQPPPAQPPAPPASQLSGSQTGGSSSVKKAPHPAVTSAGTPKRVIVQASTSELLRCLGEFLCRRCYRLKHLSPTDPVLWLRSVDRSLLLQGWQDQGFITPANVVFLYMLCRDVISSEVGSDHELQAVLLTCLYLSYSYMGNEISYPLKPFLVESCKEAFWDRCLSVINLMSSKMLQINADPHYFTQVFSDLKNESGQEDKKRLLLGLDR

As to `NC1CCC(Nc2nc(NCc3ccc(-c4cccc(F)c4)nc3)c3ncn(C4CCCC4)c3n2)CC1` (centres unmarked) [BP19, N^2-(4-amino-cyclohexyl)-9-cyclopentyl-N^6-[6-(3-fluoro-phenyl)-pyridin-3-ylmethyl]-9H-purine-2,6-diamine], the pIC50 in the experiment on Hep3B is 7.07; in experiment [1] (24 h) it was 4.66; in experiment [1] (72 h), 6.43; in the experiment on HepG2, 6.95. In addition, the remaining activity at 0.1 µM on CDK9/Cyclin T1 stood at 26.6%; at CDK7/cyclin H/MAT1, 55%; on CDK5/p35, 37.7%. Besides, the remaining activity at 1 µM at CDK9/Cyclin T1 was 0.83%; on CDK7/cyclin H/MAT1, 25%; on CDK5/p35 it was 25.6%.

Take `NC1CCC(Nc2nc(NCc3ccc(-c4ccccc4O)nc3)c3ncn(C4CCCC4)c3n2)CC1` (centres unmarked) [BP20, N^2-(4-amino-cyclohexyl)-9-cyclopentyl-N^6-[6-(2-hydroxy-phenyl)-pyridin-3-ylmethyl]-9H-purine-2,6-diamine]: the pIC50 with Hep3B was 7.49; in experiment [1] (24 h) it was 4.53; in experiment [1] (72 h), 6.24; in the experiment on HepG2, 7.17. The figures for the remaining activity at 0.1 µM at CDK9/Cyclin T1, on CDK7/cyclin H/MAT1 and at CDK5/p35 were 21.1%, 48% and 47.6%, respectively. The remaining activity at 1 µM at CDK9/Cyclin T1 turned out to be 0.59%; on CDK7/cyclin H/MAT1, 17.3%; at CDK5/p35, 19.4%.

Consider `NC1CCC(Nc2nc(NCc3ccc(-c4cccs4)nc3)c3ncn(C4CCCC4)c3n2)CC1` (centres unmarked) [BP30, N^2-(4-amino-cyclohexyl)-9-cyclopentyl-N^6-(6-thiophen-2-yl-pyridin-3-ylmethyl)-9H-purine-2,6-diamine], for which the pIC50 was 7.11 with Hep3B, 4.69 in experiment [1] (24 h), 7.10 in experiment [1] (72 h) and 6.69 in the experiment on HepG2. The remaining activity at 0.1 µM on CDK9/Cyclin T1 was 19.6%; on CDK7/cyclin H/MAT1, 47.7%; at CDK5/p35, 26%. The remaining activity at 1 µM on CDK9/Cyclin T1 came to 1.78%; at CDK7/cyclin H/MAT1, 16.5%; at CDK5/p35, 4.31%.

Consider `NC1CCC(Nc2nc(NCc3ccc(-c4ccsc4)nc3)c3ncn(C4CCCC4)c3n2)CC1` (centres unmarked) [BP35, N^2-(4-amino-cyclohexyl)-9-cyclopentyl-N^6-(6-thiophen-3-yl-pyridin-3-ylmethyl)-9H-purine-2,6-diamine], for which the pIC50 in the experiment with Hep3B was 6.68; in experiment [1] (24 h), less than 4.30; in experiment [1] (72 h) it was 6.74; in the experiment with HepG2, 6.56. Further, the remaining activity at 0.1 µM on CDK9/Cyclin T1 is 32.8%; on CDK7/cyclin H/MAT1, 64.1%; on CDK5/p35, 65%. Besides, the remaining activity at 1 µM amounted to 2.39% at CDK9/Cyclin T1, 33.5% at CDK7/cyclin H/MAT1 and 8.7% at CDK5/p35.

Consider `NC1CCC(Nc2nc(NCc3ccc(-c4ccoc4)nc3)c3ncn(C4CCCC4)c3n2)CC1` (centres unmarked) [BP36, N^2-(4-amino-cyclohexyl)-9-cyclopentyl-N^6-(6-furan-3-yl-pyridin-3-ylmethyl)-9H-purine-2,6-diamine], for which the pIC50 with Hep3B is 6.89; in experiment [1] (24 h) it was 4.68; in experiment [1] (72 h) it was 6.72; with HepG2 it was 6.88. Also, the remaining activity at 0.1 µM on CDK9/Cyclin T1 turned out to be 15.4%; at CDK7/cyclin H/MAT1, 49.1%; at CDK5/p35, 31.9%. The remaining activity at 1 µM on CDK9/Cyclin T1 was determined as 1.68%; on CDK7/cyclin H/MAT1 it was 17.3%; at CDK5/p35, 2.95%.
